Laboratory results taken from paper PMC9426601 (mBio, 2022).
Where “and” joins values, the source holds several entries; their conditions need not be identical. Equal entries are not always repeated. Where two headings read alike, the source gives them in different places.

Tests used:
A(H3N2)-WT [1] = assay: microbe, parasite or virus in culture; assay type: cell-based; details: Influenza A virus, H3N2, read-out: Baloxavir EC50 (nM) FRA
A(H1N1pdm09)-WT [2] = assay: microbe, parasite or virus in culture; assay type: cell-based, influenza A(H1N1pdm09) virus; details: Influenza A virus, read-out: Baloxavir EC50 (nM) FRA
A(H3N2)-WT [3] = assay: yield reduction assay (YRA) in MDCK-SIAT cells; assay type: cell-based, influenza A(H3N2) virus; details: A(H3N2) 100% WT, mean ± SD
Procedure: (§1) To perform the yield reduction assay, MDCK-SIAT cells were seeded into a 96-well plate as described above. Cell monolayers were washed with PBS and infected with 100 virus particles (calculated based on virus titer determined by TCID50) for 90 min. […] The plates were incubated for 24 h at 35°C, and the supernatant was collected and quantified to determine the infectious viral titer by using a TCID50 assay.

A(H1N1pdm09)-WT [4] = assay: yield reduction assay (YRA) in MDCK-SIAT cells; assay type: cell-based, influenza A(H1N1pdm09) virus; details: A(H1N1pdm09) 100% WT, mean ± SD
Procedure: as §1

A(H3N2) 100% WT = test system: A(H3N2) 100% WT; parameters: species or system ferrets (Mustela putorius furo); details: in vivo
A(H1N1pdm09) 100% WT = test system: A(H1N1pdm09) 100% WT; parameters: species or system ferrets (Mustela putorius furo); AUC (area under the curve of nasal wash viral titer): unit not given beside the values; details: in vivo
[5] = biological target: NA activity of A(H3N2)-WT (Influenza A virus, UniProt P06818); assay type: biochemical
[6] = biological target: NA activity of A(H1N1pdm09)-WT (Influenza A virus, UniProt C7FH46); assay type: biochemical; details: read-out: IC50 (nM), neuraminidase inhibitor
[7] = Influenza A virus, read-out: Baloxavir EC50 (nM) YRA
[8] = read-out: Oseltamivir IC50 (nM) YRA

Structure (SMILES) | EC50 (A(H3N2)-WT [1]) [nM] | EC50 (A(H1N1pdm09)-WT [2]) [nM] | EC50 (A(H3N2)-WT [3]; [7]) [nM] | EC50 (A(H1N1pdm09)-WT [4]; [7]) [nM] | Duration of viral shedding (A(H3N2) 100% WT) | duration of viral shedding shorter than placebo (A(H3N2) 100% WT) [days] | reduction in AUC relative to placebo (A(H3N2) 100% WT) [%] | Duration of viral shedding (A(H1N1pdm09) 100% WT) [days] | reduction in AUC relative to placebo (A(H1N1pdm09) 100% WT) [%] | reduction in mean viral titer 1 day following antiviral treatment (A(H1N1pdm09) 100% WT) | reduction of duration of viral shedding vs placebo (A(H1N1pdm09) 100% WT) [days] | IC50 (A(H3N2)-WT [3]; [8]) [nM] | IC50 (A(H1N1pdm09)-WT [4]; [8]) [nM] | IC50 ([5]; read-out: Oseltamivir IC50 (nM) NIA) [nM] | AUC (area under the curve of nasal wash viral titer) (A(H1N1pdm09) 100% WT) | IC50 ([5]; read-out: IC50 (nM), neuraminidase inhibitor) [nM] | IC50 [6] [nM]
O=C1c2c(O)c(=O)ccn2N([C@@H]2c3ccccc3SCc3c2ccc(F)c3F)[C@@H]2COCCN12 [Baloxavir, baloxavir acid] | 0.6 ± 0.2 | 1.2 ± 0.2 | 0.4 ± 0.1 | 0.3 ± 0.02 | 4.3 days and 4.3 ± 0.9 days | 1.7 | 28 | 4 ± 0.8 | 29 | 1,000 fold | 2.3 |  |  |  |  |  | 
CCOC(=O)C1=C[C@@H](OC(CC)CC)[C@H](NC(C)=O)[C@@H](N)C1 [Oseltamivir, oseltamivir] |  |  |  |  | […] |  |  | […] |  | no reduction |  | […] | […] | […] | […] |  | 
CCC(CC)[C@H](NC(C)=O)[C@@H]1[C@H](O)[C@@H](C(=O)O)C[C@H]1N=C(N)N [Peramivir] |  |  |  |  |  |  |  |  |  |  |  |  |  |  |  | 0.19 ± 0.01 | 0.15 ± 0.03
